Results published in PubChem BioAssay AID2060602 (Molecular Pharmacology Branch, DTP, NCI, 2025).
Several values for one entry are separate records, joined by “and”; a condition that tells them apart may be missing. Equal entries are not always repeated.

Test system: 648629-189-R-J1-PDC complex spheroids viability
Assay: Anticancer human tumor 648629-189-R-J1-PDC patient-derived bladder carcinoma cell line growth inhibition [CLK]
Conditions: for viability, T/C: stronger effect = lower value
Outline: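 Multi-cell-type spheroids combined patient-derived tumor cells with HUVEC endothelial cells and human mesenchymal stem cells. Paired agents were dosed in half-log steps down from about clinical Cmax, or from 10 microM where Cmax was unknown.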

[1] = curve of first compound, second compound 0.0316 µM
[2] = curve of first compound, second compound 0.1 µM
[3] = curve of first compound, second compound 0.316 µM
[4] = curve of first compound, second compound 1 µM
[5] = curve of first compound, second compound 3.16 µM
[6] = curve of first compound, second compound 10 µM
[7] = second compound 0.0316 µM, first compound 0.0316 µM
[8] = second compound 0.0316 µM, first compound 0.1 µM
[9] = second compound 0.0316 µM, first compound 0.316 µM
[10] = second compound 0.0316 µM, first compound 1 µM
[11] = second compound 0.1 µM, first compound 0.0316 µM
[12] = second compound 0.1 µM, first compound 0.1 µM
[13] = second compound 0.1 µM, first compound 0.316 µM
[14] = second compound 0.1 µM, first compound 1 µM
[15] = second compound 0.316 µM, first compound 0.0316 µM
[16] = second compound 0.316 µM, first compound 0.1 µM
[17] = second compound 0.316 µM, first compound 0.316 µM
[18] = second compound 0.316 µM, first compound 1 µM
[19] = second compound 1 µM, first compound 0.0316 µM
[20] = second compound 1 µM, first compound 0.1 µM
[21] = second compound 1 µM, first compound 0.316 µM
[22] = second compound 1 µM, first compound 1 µM
[23] = second compound 3.16 µM, first compound 0.0316 µM
[24] = second compound 3.16 µM, first compound 0.1 µM
[25] = second compound 3.16 µM, first compound 0.316 µM
[26] = second compound 3.16 µM, first compound 1 µM
[27] = second compound 10 µM, first compound 0.0316 µM
[28] = second compound 10 µM, first compound 0.1 µM
[29] = second compound 10 µM, first compound 0.316 µM
[30] = second compound 10 µM, first compound 1 µM
[31] = second compound 0.0316 µM, first compound 3.16 µM
[32] = second compound 0.0316 µM, first compound 10 µM
[33] = second compound 0.1 µM, first compound 3.16 µM
[34] = second compound 0.1 µM, first compound 10 µM
[35] = second compound 0.316 µM, first compound 3.16 µM
[36] = second compound 0.316 µM, first compound 10 µM
[37] = second compound 1 µM, first compound 3.16 µM
[38] = second compound 1 µM, first compound 10 µM
[39] = second compound 3.16 µM, first compound 3.16 µM
[40] = second compound 3.16 µM, first compound 10 µM
[41] = second compound 10 µM, first compound 3.16 µM
[42] = second compound 10 µM, first compound 10 µM
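Wherever viability, T/C is given: drug exposure lasted seven days before viability readout; 100% = DMSO vehicle control wells.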

Compound: CCN1CCN(Cc2ccc(Nc3ncc(F)c(-c4cc(F)c5nc(C)n(C(C)C)c5c4)n3)nc2)CC1 + CNC(=O)c1ccc(Nc2nc(OC3CCCC3)c3c(-c4ccc5nc(C)oc5c4)c[nH]c3n2)c(OC)c1
- IC50 [1]: > 1000 nM
- IC50 [2]: > 1000 nM
- IC50 [3]: < 3.16 nM
- IC50 [4]: < 3.16 nM
- IC50 [5]: < 3.16 nM
- IC50 [6]: < 3.16 nM
- viability, T/C (second compound 0.0316 µM, first compound 0.00316 µM): 98.4%
- viability, T/C (second compound 0.0316 µM, first compound 0.01 µM): 103%
- viability, T/C [7]: 107%
- viability, T/C [8]: 100%
- viability, T/C [9]: 113%
- viability, T/C [10]: 136%
- viability, T/C (second compound 0.1 µM, first compound 0.00316 µM): 81.3%
- viability, T/C (second compound 0.1 µM, first compound 0.01 µM): 92.8%
- viability, T/C [11]: 104%
- viability, T/C [12]: 80.7%
- viability, T/C [13]: 102%
- viability, T/C [14]: 129%
- viability, T/C (second compound 0.316 µM, first compound 0.00316 µM): 30.2%
- viability, T/C (second compound 0.316 µM, first compound 0.01 µM): 28.1%
- viability, T/C [15]: 24.2%
- viability, T/C [16]: 28.4%
- viability, T/C [17]: 36.4%
- viability, T/C [18]: 39.6%
- viability, T/C (second compound 1 µM, first compound 0.00316 µM): 17.2%
- viability, T/C (second compound 1 µM, first compound 0.01 µM): 23%
- viability, T/C [19]: 19.1%
- viability, T/C [20]: 24.1%
- viability, T/C [21]: 21.5%
- viability, T/C [22]: 31.1%
- viability, T/C (second compound 3.16 µM, first compound 0.00316 µM): 18.2%
- viability, T/C (second compound 3.16 µM, first compound 0.01 µM): 18.6%
- viability, T/C [23]: 20.9%
- viability, T/C [24]: 17.8%
- viability, T/C [25]: 23.9%
- viability, T/C [26]: 25.1%
- viability, T/C (second compound 10 µM, first compound 0.00316 µM): 16.2%
- viability, T/C (second compound 10 µM, first compound 0.01 µM): 18.9%
- viability, T/C [27]: 18.1%
- viability, T/C [28]: 18.9%
- viability, T/C [29]: 24.3%
- viability, T/C [30]: 23.8%

Compound: CC(CO)NC(=O)c1cc(-c2ccc(Cl)cc2)nn(-c2cnn(C)c2)c1=O (stereo not drawn)
- viability, T/C (compound 0.0316 µM): 103% and 108%
- viability, T/C (compound 0.1 µM): 96.4% and 90.6%
- viability, T/C (compound 0.316 µM): 95.2% and 95.5%
- viability, T/C (compound 1 µM): 96.3% and 98.4%
- viability, T/C (compound 3.16 µM): 88.3% and 117%
- viability, T/C (compound 10 µM): 86.7% and 92.5%
- IC50 (curve of compound): > 10000 nM

Compound: CC(Nc1ccc2c(c1)OCCn1cc(N3C(=O)OCC3C(F)F)nc1-2)C(N)=O (stereo not drawn) + CNC(=O)c1ccc(Nc2nc(OC3CCCC3)c3c(-c4ccc5nc(C)oc5c4)c[nH]c3n2)c(OC)c1
- IC50 [1]: 5870 nM
- IC50 [2]: 9490 nM
- IC50 [3]: < 31.6 nM
- IC50 [4]: < 31.6 nM
- IC50 [5]: < 31.6 nM
- IC50 [6]: < 31.6 nM
- viability, T/C [7]: 114%
- viability, T/C [8]: 106%
- viability, T/C [9]: 89.4%
- viability, T/C [10]: 67.8%
- viability, T/C [31]: 64.9%
- viability, T/C [32]: 40.6%
- viability, T/C [11]: 95.7%
- viability, T/C [12]: 89.9%
- viability, T/C [13]: 84.1%
- viability, T/C [14]: 77.3%
- viability, T/C [33]: 62.2%
- viability, T/C [34]: 49.6%
- viability, T/C [15]: 27.7%
- viability, T/C [16]: 37.6%
- viability, T/C [17]: 33.7%
- viability, T/C [18]: 34%
- viability, T/C [35]: 31.2%
- viability, T/C [36]: 27.1%
- viability, T/C [19]: 17%
- viability, T/C [20]: 22.3%
- viability, T/C [21]: 18.5%
- viability, T/C [22]: 17.5%
- viability, T/C [37]: 16.6%
- viability, T/C [38]: 14.8%
- viability, T/C [23]: 16.7%
- viability, T/C [24]: 20.3%
- viability, T/C [25]: 16.1%
- viability, T/C [26]: 17.8%
- viability, T/C [39]: 12.9%
- viability, T/C [40]: 15.9%
- viability, T/C [27]: 21.5%
- viability, T/C [28]: 19.8%
- viability, T/C [29]: 17.2%
- viability, T/C [30]: 15%
- viability, T/C [41]: 21.8%
- viability, T/C [42]: 11.5%

Compound: C=C(F)C(=O)N1CCN(c2nc(OCC3CCCN3C)nc3c2CCN(c2cccc4cccc(Cl)c24)C3)CC1CC#N (stereo not drawn) + CNC(=O)c1ccc(Nc2nc(OC3CCCC3)c3c(-c4ccc5nc(C)oc5c4)c[nH]c3n2)c(OC)c1
- IC50 [1]: 5950 nM
- IC50 [2]: 3810 nM
- IC50 [3]: < 31.6 nM
- IC50 [4]: < 31.6 nM
- IC50 [5]: < 31.6 nM
- IC50 [6]: < 31.6 nM
- viability, T/C [7]: 110%
- viability, T/C [8]: 107%
- viability, T/C [9]: 120%
- viability, T/C [10]: 106%
- viability, T/C [31]: 111%
- viability, T/C [32]: 0.23%
- viability, T/C [11]: 70.8%
- viability, T/C [12]: 71.7%
- viability, T/C [13]: 66.6%
- viability, T/C [14]: 65%
- viability, T/C [33]: 60.1%
- viability, T/C [34]: 0.52%
- viability, T/C [15]: 26%
- viability, T/C [16]: 27.9%
- viability, T/C [17]: 29%
- viability, T/C [18]: 22.4%
- viability, T/C [35]: 24.4%
- viability, T/C [36]: 0.16%
- viability, T/C [19]: 18.6%
- viability, T/C [20]: 17.9%
- viability, T/C [21]: 23%
- viability, T/C [22]: 20.2%
- viability, T/C [37]: 20.8%
- viability, T/C [38]: 0.14%
- viability, T/C [23]: 18.8%
- viability, T/C [24]: 19.3%
- viability, T/C [25]: 19.9%
- viability, T/C [26]: 19.4%
- viability, T/C [39]: 19.7%
- viability, T/C [40]: 0.19%
- viability, T/C [27]: 21.2%
- viability, T/C [28]: 18.6%
- viability, T/C [29]: 18.2%
- viability, T/C [30]: 19.8%
- viability, T/C [41]: 19.1%
- viability, T/C [42]: 0.26%
